Assay results from patent US20230136297A1, “Methods Of Treating Fabry Disease In Patients Having A Mutation In The GLA Gene” (Amicus Therapeutics, Inc., priority 2020, published 2023).
Positions count from the first letter of the chain named.

Experiments:
[1] = test system: α-Gal A mutant form A29D; assay: α-Gal A activity in lysates of transfected HEK-293 cells ± migalastat (HEK assay); assay type: cell-based, human
Text: (§1) Such mutations or variants are also referred to herein as “HEK assay amenable” mutations or variants.
(§2) The α-Gal A activity is expressed as the nmoles of free 4-MU released per milligram of protein per hour (nmol/mg/hr).

[2] = target: T1, α-Gal A mutant form D165N (Homo sapiens, UniProt P06280, D165N); assay: as above; assay type: cell-based
T1 construct: expressed in transfected cells; host or cells: HEK-293
T1 sequence (P06280 32-429 D165N): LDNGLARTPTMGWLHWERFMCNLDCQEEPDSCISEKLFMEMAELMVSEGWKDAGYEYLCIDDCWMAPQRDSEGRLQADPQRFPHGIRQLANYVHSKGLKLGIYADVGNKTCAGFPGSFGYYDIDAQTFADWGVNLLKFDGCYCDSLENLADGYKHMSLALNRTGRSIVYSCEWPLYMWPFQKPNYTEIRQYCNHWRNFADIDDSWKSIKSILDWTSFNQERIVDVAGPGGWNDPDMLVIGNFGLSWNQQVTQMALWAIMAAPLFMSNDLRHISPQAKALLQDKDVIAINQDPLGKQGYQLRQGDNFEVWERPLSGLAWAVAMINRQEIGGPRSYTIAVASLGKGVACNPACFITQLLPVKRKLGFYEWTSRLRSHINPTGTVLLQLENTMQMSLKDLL
Outline: (§3)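 Activity is reported as nmol of free 4-MU released per mg protein per hour (nmol/mg/hr).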

[3] = target: T2, α-Gal A mutant form F169I (Homo sapiens, UniProt P06280, F169I); assay: as above; assay type: cell-based
T2 construct: expressed in transfected cells; host or cells: HEK-293
T2 sequence (P06280 32-429 F169I): T1 sequence (P06280 32-429 D165N) with N134D, F138I
Outline: as §3

[4] = target: T3, α-Gal A mutant form N53Y (Homo sapiens, UniProt P06280, N53Y); assay: as above; assay type: cell-based
T3 construct: expressed in transfected cells; host or cells: HEK-293
T3 sequence (P06280 32-429 N53Y): T1 sequence (P06280 32-429 D165N) with N22Y, N134D
Outline: as §3

[5] = target: T4, α-Gal A mutant form V124G (Homo sapiens, UniProt P06280, V124G); assay: as above; assay type: cell-based
T4 construct: expressed in transfected cells; host or cells: HEK-293
T4 sequence (P06280 32-429 V124G): T1 sequence (P06280 32-429 D165N) with V93G, N134D
Outline: as §3

[6] = target: T5, α-Gal A mutant form Y88C (Homo sapiens, UniProt P06280, Y88C); assay: as above; assay type: cell-based
T5 construct: expressed in transfected cells; host or cells: HEK-293
T5 sequence (P06280 32-429 Y88C): T1 sequence (P06280 32-429 D165N) with Y57C, N134D
Outline: as §3

[7] = test system: novel α-Gal A mutations A29D, R38S, N53Y, Y88C, V124G, I133F, A143V, Y152N, F159C, A160D, D165N, F169I, L180V, D182G, R196T, W209R, A257T, P259S, G271A, S276T …; assay: HEK assay, amenability of the novel mutations taken together; assay type: cell-based, human; details: all 31 novel mutations; criteria: relative increase ≥1.20-fold and absolute increase ≥3.0% wild-type at 10 μM migalastat
Text: as §1, §2

[8] = 10 μM migalastat minus baseline
[9] = HEK-293 lysates, 10 μM migalastat 5 days, mean ± SEM

Absolute increase (% WT) [2, 8]: 34 % WT | Relative increase ([2]; 10 μM migalastat ÷ baseline): 6.86 | 10 μM migalastat α-Gal A activity [2, 9]: 10562 ± 1017 nmol/mg/h | 10 μM migalastat α-Gal A activity (% WT) [2, 9]: 40 ± 2.7 % WT | Absolute increase (% WT) [3, 8]: 35.9 % WT | Relative increase ([3]; 10 μM migalastat ÷ baseline): 3.44 | 10 μM migalastat α-Gal A activity [3, 9]: 15903 ± 567 nmol/mg/h | 10 μM migalastat α-Gal A activity (% WT) [3, 9]: 51.7 ± 2.2 % WT | Absolute increase (% WT) [4, 8]: 34.5 % WT | Relative increase ([4]; 10 μM migalastat ÷ baseline): 2.04 | 10 μM migalastat α-Gal A activity [4, 9]: 22871 ± 2192 nmol/mg/h | 10 μM migalastat α-Gal A activity (% WT) [4, 9]: 68.5 ± 2.6 % WT | Absolute increase (% WT) [5, 8]: 6.4 % WT | 10 μM migalastat α-Gal A activity [5, 9]: 4316 ± 432 nmol/mg/h | 10 μM migalastat α-Gal A activity (% WT) [5, 9]: 10.7 ± 1^ % WT | Absolute increase (% WT) [6, 8]: 9.9 % WT | Relative increase ([6]; 10 μM migalastat ÷ baseline): 3.38 | 10 μM migalastat α-Gal A activity [6, 9]: 5459 ± 307 nmol/mg/h | 10 μM migalastat α-Gal A activity (% WT) [6, 9]: 14 ± 1.1 % WT
Compound: OC[C@H]1NC[C@H](O)[C@@H](O)[C@H]1O [migalastat, (2R,3S,4R,5S)-2-(hydroxymethyl) piperdine-3,4,5-triol]
Absolute increase (% WT) [1, 8]: 5.1 % WT | Relative increase ([1]; 10 μM migalastat ÷ baseline): 1.35 | 10 μM migalastat α-Gal A activity [1, 9]: 6877 ± 474 nmol/mg/h | 10 μM migalastat α-Gal A activity (% WT) [1, 9]: 20.3 ± 1.1 % WT | in vitro response to incubation with migalastat [7]: met amenability criteria
